This passage reports IC50 results from PMC4289655 (Antiviral Research, 2014).

Broadly, the IC50 is the concentration at which inhibition is half-maximal. High values mean weaker potency in that assay, low ones greater potency in that assay.

The target in the assay is T1, UL98 (CMV alkaline nuclease) (Human herpesvirus 5 strain AD169, UniProt P16789).
T1 sequence (P16789 1-584): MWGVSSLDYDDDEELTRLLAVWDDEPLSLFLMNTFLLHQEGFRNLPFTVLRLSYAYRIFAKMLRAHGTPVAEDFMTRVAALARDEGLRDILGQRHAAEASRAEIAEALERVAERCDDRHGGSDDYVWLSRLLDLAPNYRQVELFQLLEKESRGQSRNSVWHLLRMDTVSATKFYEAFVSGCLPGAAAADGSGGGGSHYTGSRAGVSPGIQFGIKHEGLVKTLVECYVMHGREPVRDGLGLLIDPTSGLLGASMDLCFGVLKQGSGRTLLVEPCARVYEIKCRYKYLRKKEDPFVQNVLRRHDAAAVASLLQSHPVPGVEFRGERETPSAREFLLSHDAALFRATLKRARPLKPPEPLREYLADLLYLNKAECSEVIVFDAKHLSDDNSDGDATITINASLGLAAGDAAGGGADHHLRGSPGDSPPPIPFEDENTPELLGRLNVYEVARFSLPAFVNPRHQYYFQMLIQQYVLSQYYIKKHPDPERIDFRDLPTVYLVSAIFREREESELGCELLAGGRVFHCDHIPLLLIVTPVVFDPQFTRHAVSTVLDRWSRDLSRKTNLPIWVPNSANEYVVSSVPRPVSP
Description: TCA-soluble […] release from labeled E. coli duplex DNA. Format: biochemical.

Consider `CC(=O)Nc1ccc(Nc2cc(S(=O)(=O)O)c(N)c3c2C(=O)c2ccccc2C3=O)cc1` [acid blue 40], for which the IC50 was determined as 99 µM. In other words, the double-digit micromolar range.

`Cc1cc(C)c(Nc2cc(S(=O)(=O)O)c(N)c3c2C(=O)c2ccccc2C3=O)c(C)c1` [atanyl blue PRL] displayed an IC50 of 4.5 ± 0.7 µM.
